Test results as given in ChEMBL document CHEMBL3792286, “A convenient and efficient approach to polyfluorosalicylic acids and their tuberculostatic activity” (Bioorg Med Chem Lett, 2016).
In brackets after ≈: the same amount, converted by molar mass.

What was measured:
[1] = test system: Mycobacterium tuberculosis; assay: microbe, parasite or virus in culture; settings: H37Rv, 240 h
Description: Tuberculostatic activity against Mycobacterium tuberculosis H37Rv assessed as induction of penetration size stunting incubated for 10 days by vertical diffusion method

Mycobacterium avium = type: functional; settings: 240 h
[2] = Toxicity in healthy mouse administered as single peroral dose measured after 14 days; type: organism-based; settings: in vivo, po
Mycolicibacter terrae = type: functional; settings: 240 h
[3] = test system: Mycobacterium tuberculosis; assay: Antimicrobial activity against Mycobacterium tuberculosis; type: functional

SMILES	MIC [1] [µg/mL]	MIC (Mycobacterium avium) [µg/mL]	LD50 at 336 h [2] [mg/kg]	MIC (Mycolicibacter terrae) [µg/mL]	MIC [3] [µg/mL]
NNC(=O)c1ccncc1 [ISONIAZID]	0.1 (≈ 0.729 µM)	0.1 (≈ 0.729 µM)	100	0.1 (≈ 0.729 µM)	
O=C(O)c1cc(F)c(F)c(F)c1O	6.5 (≈ 33.8 µM)		> 100		
Nc1ccc(C(=O)O)c(O)c1 [AMINOSALICYLIC ACID]	0.3 (≈ 1.96 µM)	32 (≈ 209 µM)	4000		> 250
CC1COc2c(N3CCN(C)CC3)c(F)cc3c(=O)c(C(=O)O)cn1c23 (stereo not given) [OFLOXACIN]	0.1 (≈ 0.277 µM)	0.1 (≈ 0.277 µM)		0.1 (≈ 0.277 µM)	
O=C(O)c1cc(F)c(F)cc1O	0.7 (≈ 4.02 µM)	0.7 (≈ 4.02 µM)	> 300	0.7 (≈ 4.02 µM)	
O=C(O)c1c(O)c(F)c(F)c(F)c1F	0.7 (≈ 3.33 µM)	0.7 (≈ 3.33 µM)	100	0.7 (≈ 3.33 µM)	
O=C(O)c1ccc(F)c(F)c1O	1.5 (≈ 8.62 µM)	1.5 (≈ 8.62 µM)	> 150	1.5 (≈ 8.62 µM)	
